Data from patent US9409952B2, “Peptide-compound cyclization method” (Chugai Seiyaku Kabushiki Kaisha, priority 2011, dated 2016).
Like-named read-outs stand apart in the source and are kept apart here. Starred links: 1 amine or outer side, 2 acyl side, 3 side chain; linkers in the order of their positions; H or OH if unused. Positions of bridges follow the written chain, without caps; N, C: chain ends. Non-standard residues stand in square brackets, D forms with d. Residues, ends and D or L forms follow the SMILES beside them. ξ: configuration not given here. *: point of attachment. Phe(4-(CH2)5CO) = O=C([C@H](Cc1ccc(CCCCCC(=O)[*:3])cc1)N[*:1])[*:2]; Ala(1H-tetrazol-5-yl) = N[C@@H](Cc1nnn[nH]1)C(=O)O; hhPhe = N[C@@H](CCCc1ccccc1)C(=O)O; NMeF = CN[C@@H](Cc1ccccc1)C(=O)O; NMeI = CC[C@H](C)[C@H](NC)C(=O)O; NMeβAla = CN(CCC(=O)[*:2])[*:1]; NMeL = CN[C@@H](CC(C)C)C(=O)O; ξNMeF = CNC(Cc1ccccc1)C(=O)O; NMeV = CN[C@H](C(=O)O)C(C)C; NMeS = CN[C@@H](CO)C(=O)O; NMeA = CN[C@@H](C)C(=O)O; Piperidide = C1CCN(*)CC1; dNMeA = CN[C@H](C)C(=O)O; β3hA = C[C@H](N)CC(=O)O; Sar = CNCC(=O)O; tBu = CC(C)(C)*

What was measured:
[1] = Metabolic stability in human hepatic microsome; type: in vitro ADME; details: microsomes
[2] = PAMPA (parallel artificial membrane permeability assay); type: in vitro ADME; details: PAMPA
Method in brief: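 Artificial membrane was 10% (w/v) egg lecithin plus 0.5% (w/v) cholesterol in dodecane on a PVDF filter. A 10 mM DMSO stock was added at 0.5% (v/v) to donor buffer (50 mM MOPSO, pH 6.5, 5.0% glycocholic acid). After 18 h at 37 °C, LC/MS or LC/UV gave donor and acceptor levels for Pe.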

[3] = pH 7.4, human hepatic microsome, NADPH(+), read-out: CL NADPH(+)
[4] = membrane permeation rate (Pe), 50 mM MOPSO buffer pH 6.5 with 5.0% glycocholic acid, 37° C., 18 hours, read-out: iPAMPA Pe

Compound | microsomal CLint at 1 uM [1, 3] [µL/min/mg] | Papp at 18 hours, 50 µM [2, 4] [×10⁻⁶ cm/s] | microsomal CLint at 1 uM ([1]; human, pH 7.4, CL NADPH(+)) [µL/min/mg] | Papp at 18 hours, 50 µM ([2]; pH 6.5) [×10⁻⁶ cm/s]
CC[C@H](C)[C@H]1C(=O)N[C@@H](COC(C)(C)C)C(=O)N(C)[C@@H](Cc2ccccc2)C(=O)N(C)[C@@H](C(C)C)C(=O)N[C@H](C(=O)N2CCCCC2)Cc2ccc(cc2)CCCCCC(=O)N(C)[C@@H](Cc2ccccc2)C(=O)N[C@@H](CC(C)C)C(=O)N(C)[C@@H](CC(C)C)C(=O)N[C@@H]([C@@H](C)O)C(=O)N(C)CC(=O)N1C [DP-852] ([NMeF]L[NMeL]T[Sar][NMeI]S(tBu)[NMeF][NMeV][Phe(4-(CH2)5CO)]-Piperidide; lactam N-10) | 484 | 0.7 |  | 
CC(C)C[C@H]1C(=O)N(C)[C@@H](C)C(=O)N[C@@H](C)C(=O)N[C@H](C(=O)N2CCCCC2)CC(=O)N(C)CCC(=O)N(C)[C@@H](Cc2ccccc2)C(=O)N(C)[C@@H](C)C(=O)N[C@@H]([C@@H](C)O)C(=O)N(C)[C@@H](C)C(=O)N[C@@H](Cc2ccccc2)C(=O)N(C)[C@@H](C(C)C)C(=O)N1C [DP-326] ([NMeβAla][NMeF][NMeA]T[NMeA]F[NMeV][NMeL][NMeA]AD-Piperidide; lactam N-11) | 15 | 2.5 |  | 
CC(C)C[C@@H]1NC(=O)[C@H](CC(C)C)N(C)C(=O)[C@H](C(C)C)NC(=O)[C@H](CC(C)C)N(C)C(=O)CN(C)C(=O)[C@H](CC(C)C)NC(=O)[C@H](CO)N(C)C(=O)[C@H](CC(C)C)N(C)C(=O)[C@H](CC(C)C)N(C)C(=O)C[C@H](C)NC(=O)[C@@H](CC(C)C)NC1=O [DP-642] (cyclo(L[Sar][NMeL]V[NMeL]L[dL][β3hA][NMeL][NMeL][NMeS])) | 65 | 32 |  | 
CC(C)C[C@H]1C(=O)N[C@@H](COC(C)(C)C)C(=O)N[C@H](C(=O)N2CCCCC2)CC(=O)N[C@H](C)C(=O)N(C)[C@@H](C)C(=O)N(C)[C@@H](Cc2ccccc2)C(=O)N(C)[C@@H](CC(C)C)C(=O)N[C@@H]([C@@H](C)O)C(=O)N(C)[C@@H](C)C(=O)N1C [DP-148] ([dA][NMeA][NMeF][NMeL]T[NMeA][NMeL]S(tBu)D-Piperidide; lactam N-9) |  |  | 69 | 31
CC(C)C[C@@H]1NC(=O)[C@H](CC(C)C)N(C)C(=O)C[C@@H](C(=O)N2CCCCC2)NC(=O)[C@H](CC(C)C)N(C)C(=O)[C@H](CC(C)C)N(C)C(=O)[C@H](Cc2nn[nH]n2)NC(=O)[C@H](CC(C)C)N(C)C(=O)[C@H](Cc2ccccc2)N(C)C(=O)[C@H](CC(C)C)NC(=O)[C@H](Cc2ccccc2)N(C)C(=O)[C@H](CC(C)C)N(C)C1=O [DP-908] ([NMeL]L[NMeL][NMeF]L[NMeF][NMeL][Ala(1H-tetrazol-5-yl)][NMeL][NMeL]D-Piperidide; lactam N-11) | 3 | 1.6 |  | 
CC(C)C[C@H]1C(=O)N[C@@H](C(C)C)C(=O)N[C@H](C(=O)N(C)C(Cc2ccccc2)C(=O)N(C)[C@@H](Cc2ccccc2)C(=O)N[C@@H](C)C(=O)N2CCCCC2)CC(=O)N[C@H](C(C)C)C(=O)N(C)[C@@H](C)C(=O)N(C)[C@@H](Cc2ccccc2)C(=O)N(C)[C@@H](CC(C)C)C(=O)N[C@@H]([C@@H](C)O)C(=O)N(C)CC(=O)N1C (some centres unmarked) [DP-306] ([dV][NMeA][NMeF][NMeL]T[Sar][NMeL]VD[ξNMeF][NMeF]A-Piperidide; lactam N-9) |  |  | 63 | 56
CC(C)C[C@H]1C(=O)N[C@@H](C)C(=O)N(C)[C@@H](Cc2ccccc2)C(=O)N(C)[C@@H](C)C(=O)N(C)[C@@H](Cc2ccccc2)C(=O)N[C@@H]([C@@H](C)O)C(=O)N(C)[C@@H](C)C(=O)N[C@H](C(=O)N2CCCCC2)CC(=O)N(C)[C@H](C)C(=O)N(C)[C@@H](C)C(=O)N1C [DP-341] ([dNMeA][NMeA][NMeL]A[NMeF][NMeA][NMeF]T[NMeA]D-Piperidide; lactam N-10) | 69 | 9.5 |  | 
CC(C)C[C@@H]1NC(=O)[C@H](Cc2ccccc2)N(C)C(=O)[C@H](C)NC(=O)[C@H](C)N(C)C(=O)C[C@@H](C(=O)N2CCCCC2)NC(=O)[C@H]([C@@H](C)O)NC(=O)[C@H](C)N(C)C(=O)[C@H](C)N(C)C(=O)[C@H](Cc2ccccc2)NC(=O)CN(C)C(=O)[C@H](C(C)C)N(C)C(=O)[C@H](C)N(C)C1=O [DP-470] ([NMeA]A[NMeF]L[NMeA][NMeV][Sar]F[NMeA][NMeA]TD-Piperidide; lactam N-12) | 11 | 1.2 |  | 
CC(C)C[C@H]1C(=O)N[C@@H]([C@@H](C)O)C(=O)N(C)[C@@H](Cc2ccccc2)C(=O)N(C)[C@@H](CC(C)C)C(=O)NCC(=O)N(C)[C@@H](C(C)C)C(=O)N[C@@H](Cc2ccccc2)C(=O)N[C@H](C(=O)N2CCCCC2)CC(=O)N(C)[C@H](C)C(=O)N[C@@H](COC(C)(C)C)C(=O)N1C [DP-260] ([dNMeA]S(tBu)[NMeL]T[NMeF][NMeL]G[NMeV]FD-Piperidide; lactam N-10) | 259 | 44 |  | 
CC[C@H](C)[C@H]1C(=O)N(C)[C@@H](C)C(=O)N(C)[C@@H](CC(C)C)C(=O)N[C@@H](COC(C)(C)C)C(=O)N(C)[C@@H](CC(C)C)C(=O)N[C@@H](C)CC(=O)N(C)[C@@H](C)C(=O)N(C)[C@@H](Cc2ccccc2)C(=O)N[C@@H](C)C(=O)N(C)[C@@H](CC(C)C)C(=O)N[C@@H]([C@@H](C)O)C(=O)N1C [DP-816] (cyclo(A[NMeL]T[NMeI][NMeA][NMeL]S(tBu)[NMeL][β3hA][NMeA][NMeF])) | 192 | 32 |  | 
CC(C)C[C@@H]1NC(=O)[C@H](CC(C)C)N(C)C(=O)CN(C)C(=O)[C@H]([C@@H](C)O)NC(=O)[C@H](C)N(C)C(=O)C[C@@H](C(=O)N2CCCCC2)NC(=O)[C@H](Cc2ccccc2)N(C)C1=O [DP-744] ([NMeA]T[Sar][NMeL]L[NMeF]D-Piperidide; lactam N-7) | 61 | 12 |  | 
CC[C@H](C)[C@H](NC(=O)[C@H](CC(C)C)N(C)C(=O)[C@H](CC(C)C)NC(=O)[C@H](C)N(C)C(=O)[C@@H]1CC(=O)N[C@@H](C)C(=O)N(C)[C@@H](CC(C)C)C(=O)N[C@@H](C(C)C)C(=O)N[C@@H](C)C(=O)N(C)[C@@H](CC(C)C)C(=O)N(C)[C@@H](CC(C)C)C(=O)N(C)[C@@H](Cc2ccccc2)C(=O)N[C@@H]([C@@H](C)O)C(=O)N(C)[C@@H](Cc2ccccc2)C(=O)N1)C(=O)N1CCCCC1 [DP-945] (A[NMeL]VA[NMeL][NMeL][NMeF]T[NMeF]D[NMeA]L[NMeL]I-Piperidide; lactam N-10) | 28 | 0.1 |  | 
CC[C@H](C)[C@@H]1NC(=O)[C@H](C)N(C)C(=O)[C@@H](C)N(C)C(=O)C[C@@H](C(=O)N2CCCCC2)NC(=O)[C@H](CC(C)C)N(C)C(=O)[C@H](C)N(C)C(=O)[C@H](Cc2ccccc2)N(C)C(=O)[C@H]([C@@H](C)O)NC(=O)[C@H](Cc2ccccc2)N(C)C(=O)[C@H](CC(C)C)N(C)C1=O [DP-51] ([dNMeA][NMeA]I[NMeL][NMeF]T[NMeF][NMeA][NMeL]D-Piperidide; lactam N-10) |  |  | 96 | 34
CC(C)C[C@@H]1NC(=O)[C@H](CC(C)C)NC(=O)[C@H](C)N(C)C(=O)C[C@@H](C(=O)N2CCCCC2)NC(=O)[C@H](C(C)C)N(C)C(=O)[C@H](CC(C)C)NC(=O)[C@H](Cc2ccccc2)NC(=O)[C@H]([C@@H](C)O)NC(=O)CN(C)C(=O)[C@H](CC(C)C)NC(=O)[C@H](C)NC1=O [DP-111] ([NMeA]LLAL[Sar]TFL[NMeV]D-Piperidide; lactam N-11) |  |  | 17 | 12
CC(C)C[C@@H]1NC(=O)C[C@@H](C(=O)N2CCCCC2)NC(=O)[C@H]([C@@H](C)O)NC(=O)[C@H](CC(C)C)N(C)C(=O)CN(C)C(=O)[C@H](Cc2ccccc2)N(C)C(=O)[C@H](C)N(C)C1=O [DP-745] (L[NMeA][NMeF][Sar][NMeL]TD-Piperidide; lactam N-7) | 232 | 17 |  | 
CC[C@H](C)[C@@H]1NC(=O)[C@H](CC(C)C)N(C)C(=O)[C@H](CC(C)C)N(C)C(=O)CCN(C)C(=O)C[C@@H](C(=O)N2CCCCC2)NC(=O)[C@H](CC(C)C)N(C)C(=O)[C@H](CC(C)C)N(C)C(=O)[C@H](Cc2ccccc2)N(C)C(=O)[C@H]([C@@H](C)O)NC(=O)[C@H](Cc2ccccc2)N(C)C1=O [DP-429] ([NMeβAla][NMeL][NMeL]I[NMeF]T[NMeF][NMeL][NMeL]D-Piperidide; lactam N-10) | 115 | 15 |  | 
CC(C)C[C@H]1C(=O)N(C)[C@@H](C(C)C)C(=O)N(C)[C@@H](C)C(=O)N[C@@H](CCCc2ccccc2)C(=O)N(C)[C@@H](C)C(=O)N[C@H](C(=O)N2CCCCC2)CC(=O)N(C)[C@@H](C)C(=O)N[C@@H]([C@@H](C)O)C(=O)N(C)[C@@H](C)C(=O)N[C@@H](C)C(=O)N(C)[C@@H](Cc2ccccc2)C(=O)N1C [DP-735] ([NMeA]T[NMeA]A[NMeF][NMeL][NMeV][NMeA][hhPhe][NMeA]D-Piperidide; lactam N-11) | 88 | 21 |  | 
CC[C@H](C)[C@H]1C(=O)NCC(=O)N(C)[C@@H](Cc2ccccc2)C(=O)N[C@@H]([C@@H](C)O)C(=O)N(C)[C@@H](C)C(=O)N[C@@H](CC(C)C)C(=O)N[C@@H](C)CC(=O)N(C)[C@H](C)C(=O)N(C)[C@@H](C)C(=O)N[C@@H](Cc2ccccc2)C(=O)N(C)[C@@H](CC(C)C)C(=O)N[C@@H](C(C)C)C(=O)N1C [DP-755] (cyclo(F[NMeL]V[NMeI]G[NMeF]T[NMeA]L[β3hA][dNMeA][NMeA])) | 144 | 36 |  | 
CC(C)C[C@@H]1NC(=O)[C@H](CC(C)C)N(C)C(=O)[C@H](C)NC(=O)[C@H](C(C)C)N(C)C(=O)[C@H](Cc2ccccc2)NC(=O)CN(C)C(=O)[C@H]([C@@H](C)O)NC(=O)[C@H](C)N(C)C(=O)[C@H](CC(C)C)N(C)C(=O)[C@@H](C)NC(=O)C[C@@H](C(=O)N2CCCCC2)NC1=O [DP-95] ([dA][NMeL][NMeA]T[Sar]F[NMeV]A[NMeL]LD-Piperidide; lactam N-11) | 19 | 7.3 |  | 
